Tests used:
[1] = refractive index (Na D-line) (dimensionless); conditions: 101.33 kPa, Liquid, Standard Abbe refractometry
[2] = 101.33 kPa, Liquid; for mass density: Vibrating tube method; for viscosity: Concentric cylinders viscometry

CCCCn1cc[n+](CCC#N)c1.[Br-] [1-butyl-3-(2-cyanoethyl)-1H-imidazolium bromide]
Conditions | mass density, [2] [kg/m3] | refractive index, [1] | viscosity, [2] [mPa·s]
293.15 K | 1308.5 | – | –
298.15 K | 1304.7 | 1.5454 | 19103
303.15 K | 1301.1 | 1.54454 | 11304
308.15 K | 1297.7 | 1.54346 | 7058.4
313.15 K | 1294.3 | 1.54229 | 4502.1
318.15 K | 1291 | 1.54111 | 2953
323.15 K | 1287.6 | 1.53992 | 1989.7
328.15 K | 1284.4 | 1.53869 | 1377.5
333.15 K | 1281.2 | 1.53748 | 975.6
338.15 K | 1277.9 | – | 705.8
343.15 K | 1274.7 | – | 520.5
348.15 K | 1271.4 | – | 390.7
353.15 K | 1268.2 | – | 298.1

CCCCCCn1cc[n+](CCC#N)c1.[Br-] [3-(2-cyanoethyl)-1-hexyl-1H-imidazolium bromide]
Conditions | mass density, [2] [kg/m3] | refractive index, [1] | viscosity, [2] [mPa·s]
293.15 K | 1232.4 | – | –
298.15 K | 1229 | 1.52872 | –
303.15 K | 1225.6 | 1.52823 | 15893
308.15 K | 1222.3 | 1.52719 | 9029.8
313.15 K | 1219 | 1.526 | 5610.4
318.15 K | 1215.7 | 1.52479 | 3602.1
323.15 K | 1212.4 | 1.52354 | 2379.9
328.15 K | 1209.1 | 1.52229 | 1618.2
333.15 K | 1205.8 | 1.52117 | 1128.4
338.15 K | 1202.5 | – | 805.1
343.15 K | 1199.2 | – | 639.6
348.15 K | 1195.9 | – | 465.7
353.15 K | 1192.7 | – | 359.3

CCCCCCCCCCn1cc[n+](CCC#N)c1.[Br-] [3-(2-cyanoethyl)-1-decyl-1H-imidazolium bromide]
Conditions | mass density, [2] [kg/m3] | refractive index, [1] | viscosity, [2] [mPa·s]
308.15 K | 1134.2 | 1.50786 | –
313.15 K | 1129.5 | 1.50696 | 16702
318.15 K | 1125.6 | 1.50606 | 10314
323.15 K | 1121.2 | 1.50502 | 6813.4
328.15 K | 1118.2 | 1.50388 | 4573.6
333.15 K | 1115 | 1.50279 | 3016.4
338.15 K | 1111.7 | – | 2051.2
343.15 K | 1108.5 | – | 1426.6
348.15 K | 1105.2 | – | 1014.6
353.15 K | 1101.9 | – | 737

CCCCCCCCn1cc[n+](CCC#N)c1.[Br-] [3-(2-cyanoethyl)-1-octyl-1H-imidazolium bromide]
Conditions | mass density, [2] [kg/m3] | refractive index, [1] | viscosity, [2] [mPa·s]
293.15 K | 1180.1 | – | –
298.15 K | 1176.6 | 1.51473 | –
303.15 K | 1173.2 | 1.51362 | –
308.15 K | 1169.8 | 1.51266 | 19620
313.15 K | 1166.4 | 1.51149 | 13044
318.15 K | 1163 | 1.51024 | 8302.7
323.15 K | 1159.6 | 1.50891 | 5136.1
328.15 K | 1156.2 | 1.50757 | 3291.8
333.15 K | 1152.9 | 1.50604 | 2160.4
338.15 K | 1149.5 | – | 1459.8
343.15 K | 1146.1 | – | 1019.6
348.15 K | 1142.8 | – | 727.9
353.15 K | 1139.6 | – | 530.5

Source: the NIST ThermoML archive (doi:10.1021/je901050v)
